Columns and labels:
[1] = biological target: PI3K delta (Homo sapiens (Human), UniProt O00329); test: Enzymatic PI3K delta isoform inhibition (lipid kinase, Kinase-Glo luminescence); assay type: biochemical; details: enzymatic assay
[2] = biological target: PI3K alpha (Homo sapiens (Human), UniProt P42336); test: Enzymatic PI3K alpha isoform inhibition (lipid kinase, Kinase-Glo luminescence); assay type: biochemical; details: enzymatic assay
Sequence of PI3K alpha (P42336 other isoform, or with tags, fused parts or gaps): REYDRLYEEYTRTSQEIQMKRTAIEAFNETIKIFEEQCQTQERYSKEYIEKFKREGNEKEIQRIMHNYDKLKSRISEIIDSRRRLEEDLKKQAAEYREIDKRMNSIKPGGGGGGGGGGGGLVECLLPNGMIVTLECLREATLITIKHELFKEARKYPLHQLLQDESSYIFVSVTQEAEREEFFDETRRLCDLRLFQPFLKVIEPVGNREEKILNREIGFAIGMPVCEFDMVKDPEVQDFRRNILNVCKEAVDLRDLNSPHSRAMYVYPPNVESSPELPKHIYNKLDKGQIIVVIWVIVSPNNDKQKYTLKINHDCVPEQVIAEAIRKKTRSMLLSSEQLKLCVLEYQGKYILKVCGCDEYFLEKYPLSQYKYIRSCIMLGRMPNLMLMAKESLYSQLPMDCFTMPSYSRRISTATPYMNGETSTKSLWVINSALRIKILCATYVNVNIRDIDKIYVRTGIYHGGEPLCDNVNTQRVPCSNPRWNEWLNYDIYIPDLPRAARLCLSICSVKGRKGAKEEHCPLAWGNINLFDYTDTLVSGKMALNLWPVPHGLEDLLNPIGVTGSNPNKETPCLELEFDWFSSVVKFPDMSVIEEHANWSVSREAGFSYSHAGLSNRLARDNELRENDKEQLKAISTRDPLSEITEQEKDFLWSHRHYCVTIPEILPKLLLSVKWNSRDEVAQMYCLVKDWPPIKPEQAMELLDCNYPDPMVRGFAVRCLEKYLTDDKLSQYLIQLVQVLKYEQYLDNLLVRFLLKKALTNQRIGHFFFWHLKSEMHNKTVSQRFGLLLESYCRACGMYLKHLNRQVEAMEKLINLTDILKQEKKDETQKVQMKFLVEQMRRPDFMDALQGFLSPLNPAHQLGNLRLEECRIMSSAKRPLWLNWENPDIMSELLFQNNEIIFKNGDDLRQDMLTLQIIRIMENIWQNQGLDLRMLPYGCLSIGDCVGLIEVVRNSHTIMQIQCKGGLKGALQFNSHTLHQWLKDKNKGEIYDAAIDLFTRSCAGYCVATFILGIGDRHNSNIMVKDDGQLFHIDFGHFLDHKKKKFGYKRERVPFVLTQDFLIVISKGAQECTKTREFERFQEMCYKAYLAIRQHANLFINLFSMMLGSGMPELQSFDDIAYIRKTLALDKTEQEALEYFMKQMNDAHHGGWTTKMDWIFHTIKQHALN

Sequence of PI3K delta (O00329 other isoform, or with tags, fused parts or gaps linker GGGGGG): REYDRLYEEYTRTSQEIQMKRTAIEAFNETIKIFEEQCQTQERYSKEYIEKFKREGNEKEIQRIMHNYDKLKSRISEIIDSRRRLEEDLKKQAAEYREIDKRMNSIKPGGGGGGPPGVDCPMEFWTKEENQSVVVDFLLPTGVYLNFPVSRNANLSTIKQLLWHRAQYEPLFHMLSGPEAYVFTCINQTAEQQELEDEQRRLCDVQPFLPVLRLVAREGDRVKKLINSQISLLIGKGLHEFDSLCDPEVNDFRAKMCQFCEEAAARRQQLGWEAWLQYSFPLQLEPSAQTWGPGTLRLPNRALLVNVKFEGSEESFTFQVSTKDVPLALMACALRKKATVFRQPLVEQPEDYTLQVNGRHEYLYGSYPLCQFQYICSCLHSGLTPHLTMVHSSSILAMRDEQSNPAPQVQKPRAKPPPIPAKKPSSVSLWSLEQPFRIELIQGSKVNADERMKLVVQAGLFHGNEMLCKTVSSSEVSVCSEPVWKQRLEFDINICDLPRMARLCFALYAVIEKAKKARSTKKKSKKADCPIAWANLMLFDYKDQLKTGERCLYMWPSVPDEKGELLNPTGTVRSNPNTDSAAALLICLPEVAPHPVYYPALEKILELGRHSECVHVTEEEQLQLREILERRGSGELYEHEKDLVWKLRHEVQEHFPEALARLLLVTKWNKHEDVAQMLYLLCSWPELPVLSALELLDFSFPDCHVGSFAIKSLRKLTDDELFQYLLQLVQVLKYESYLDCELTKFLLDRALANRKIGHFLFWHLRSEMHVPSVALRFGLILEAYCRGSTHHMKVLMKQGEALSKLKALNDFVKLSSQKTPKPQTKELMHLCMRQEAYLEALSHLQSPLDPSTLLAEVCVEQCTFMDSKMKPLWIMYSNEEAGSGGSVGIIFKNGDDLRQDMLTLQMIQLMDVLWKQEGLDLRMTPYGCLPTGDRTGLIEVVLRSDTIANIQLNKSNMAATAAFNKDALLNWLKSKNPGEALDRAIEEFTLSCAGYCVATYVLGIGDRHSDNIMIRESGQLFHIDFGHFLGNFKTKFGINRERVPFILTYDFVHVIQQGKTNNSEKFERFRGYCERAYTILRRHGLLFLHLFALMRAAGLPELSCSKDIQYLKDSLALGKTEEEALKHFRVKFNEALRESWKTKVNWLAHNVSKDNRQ

SMILES | IC50 [1] [nM] | IC50 [2] [nM]
COc1ncc(N2CCc3ncnc(N[C@H]4CCN(C(=O)[C@H]5CC[C@@H](OC)CC5)C4)c3C2)cc1C(F)(F)F (single isomer, unassigned) [Example 73] | 4 | –
COc1ncc(N2CCc3ncnc(N[C@H]4CCN(C(=O)[C@H]5CC[C@H](OC)CC5)C4)c3C2)cc1C(F)(F)F (single isomer, unassigned) [Example 74] | 4 | –
COc1ncc(N2CCc3ncnc(N[C@H]4CCN(C(=O)[C@H]5CC[C@@H](O)CC5)C4)c3C2)cc1C(F)(F)F (single isomer, unassigned) [Example 75] | 4 | 118
COc1ncc(N2CCc3ncnc(N[C@H]4CCN(C(=O)[C@H]5CC[C@H](O)CC5)C4)c3C2)cc1C(F)(F)F (single isomer, unassigned) [Example 76] | 7 | 106
COc1ncc(N2CCc3ncnc(O[C@H]4CCN(C(=O)C5CCOCC5)C4)c3C2)c(OC)n1 [Example 2, {(S)-3-[6-(2,4-Dimethoxy-pyrimidin-5-yl)-5,6,7,8-tetrahydro-pyrido[4,3-d]pyrimidin-4-yloxy]-pyrrolidin-1-yl}-(tetrahydro-pyran-4-yl)-methanone] | 9 | 3390
COc1ncc(N2CCc3ncnc(O[C@H]4CCN(C(=O)C5CCOCC5)C4)c3C2)cc1C#N [Example 3, 2-Methoxy-5-{4-[(S)-1-(tetrahydro-pyran-4-carbonyl)-pyrrolidin-3-yloxy]-7,8-dihydro-5H-pyrido[4,3-d]pyrimidin-6-yl}-nicotinonitrile] | 15 | 2390
CCC(=O)N1CC[C@H](Oc2ncnc3c2CN(c2cnc(OC)c(OC)c2)CC3)C1 [Example 4, 1-{(S)-3-[6-(5,6-Dimethoxy-pyridin-3-yl)-5,6,7,8-tetrahydro-pyrido[4,3-d]pyrimidin-4-yloxy]-pyrrolidin-1-yl}-propan-1-one] | 33 | 1760
N#Cc1cc(N2CCc3ncnc(O[C@H]4CCN(C(=O)C5CCOCC5)C4)c3C2)cnc1N [Example 6, 2-Amino-5-{4-[(S)-1-(tetrahydro-pyran-4-carbonyl)-pyrrolidin-3-yloxy]-7,8-dihydro-5H-pyrido[4,3-d]pyrimidin-6-yl}-nicotinonitrile] | 44 | 987
COc1ncc(N2CCc3ncnc(O[C@H]4CCN(C(=O)C5CCOCC5)C4)c3C2)cc1F [Example 7] | 13 | 1970
COCC(=O)N1CC[C@H](Oc2ncnc3c2CN(c2cnc(OC)c(C#N)c2)CC3)C1 [Example 8, 2-Methoxy-5-{4-[(S)-1-(2-methoxy-acetyl)-pyrrolidin-3-yloxy]-7,8-dihydro-5H-pyrido[4,3-d]pyrimidin-6-yl}-nicotinonitrile] | 27 | 2490
COc1ncc(N2CCc3ncnc(O[C@H]4CCN(C(=O)C5CCCC5)C4)c3C2)cc1C#N [Example 9, 5-[4-((S)-1-Cyclopentanecarbonyl-pyrrolidin-3-yloxy)-7,8-dihydro-5H-pyrido[4,3-d]pyrimidin-6-yl]-2-methoxy-nicotinonitrile] | 9 | 2910
COc1ncc(N2CCc3ncnc(O[C@H]4CCN(C(=O)c5oc(C)nc5C)C4)c3C2)cc1C [Example 10, (2,4-Dimethyl-oxazol-5-yl)-{(S)-3-[6-(6-methoxy-5-methyl-pyridin-3-yl)-5,6,7,8-tetrahydro-pyrido[4,3-d]pyrimidin-4-yloxy]-pyrrolidin-1-yl}-methanone] | 9 | 668
COc1ncc(N2CCc3ncnc(O[C@H]4CCN(C(=O)c5ccoc5)C4)c3C2)cc1C [Example 11, Furan-3-yl-{(S)-3-[6-(6-methoxy-5-methyl-pyridin-3-yl)-5,6,7,8-tetrahydro-pyrido[4,3-d]pyrimidin-4-yloxy]-pyrrolidin-1-yl}-methanone] | 11 | 1200
COc1ncc(N2CCc3ncnc(O[C@H]4CCN(C(=O)c5cnco5)C4)c3C2)cc1C [Example 12, {(S)-3-[6-(6-Methoxy-5-methyl-pyridin-3-yl)-5,6,7,8-tetrahydro-pyrido[4,3-d]pyrimidin-4-yloxy]-pyrrolidin-1-yl}-oxazol-5-yl-methanone] | 12 | 952
COc1ncc(N2CCc3ncnc(O[C@H]4CCN(C(=O)c5cncn5C)C4)c3C2)cc1C [Example 13, {(S)-3-[6-(6-Methoxy-5-methyl-pyridin-3-yl)-5,6,7,8-tetrahydro-pyrido[4,3-d]pyrimidin-4-yloxy]-pyrrolidin-1-yl}-(3-methyl-3H-imidazol-4-yl)-methanone] | 13 | 1800
COc1ncc(N2CCc3ncnc(O[C@H]4CCN(C(=O)c5coc(C)n5)C4)c3C2)cc1C [Example 14, {(S)-3-[6-(6-Methoxy-5-methyl-pyridin-3-yl)-5,6,7,8-tetrahydro-pyrido[4,3-d]pyrimidin-4-yloxy]-pyrrolidin-1-yl}-(2-methyl-oxazol-4-yl)-methanone] | 13 | 1830
COc1ncc(N2CCc3ncnc(O[C@H]4CCN(C(=O)C5CC(OC)C5)C4)c3C2)cc1C (stereo partly drawn) [Example 15, (3-Methoxy-cyclobutyl)-{(S)-3-[6-(6-methoxy-5-methyl-pyridin-3-yl)-5,6,7,8-tetrahydro-pyrido[4,3-d]pyrimidin-4-yloxy]-pyrrolidin-1-yl}-methanone] | 14 | 1630
COc1ncc(N2CCc3ncnc(O[C@H]4CCN(C(=O)c5cocn5)C4)c3C2)cc1C [Example 16] | 16 | 1680
COc1ncc(N2CCc3ncnc(O[C@H]4CCN(C(=O)C5CCN(C(C)=O)CC5)C4)c3C2)cc1C [Example 17, 1-(4-{(S)-3-[6-(6-Methoxy-5-methyl-pyridin-3-yl)-5,6,7,8-tetrahydro-pyrido[4,3-d]pyrimidin-4-yloxy]-pyrrolidine-1-carbonyl}-piperidin-1-yl)-ethanone] | 17 | 7680
COc1ncc(N2CCc3ncnc(O[C@H]4CCN(C(=O)c5ocnc5C)C4)c3C2)cc1C [Example 18, {(S)-3-[6-(6-Methoxy-5-methyl-pyridin-3-yl)-5,6,7,8-tetrahydro-pyrido[4,3-d]pyrimidin-4-yloxy]-pyrrolidin-1-yl}-(4-methyl-oxazol-5-yl)-methanone] | 33 | 871
COc1ncc(N2CCc3ncnc(O[C@H]4CCN(C(=O)N5CCN(C)CC5)C4)c3C2)cc1C(F)(F)F [Example 85, {(S)-3-[6-(6-methoxy-5-trifluoromethyl-pyridin-3-yl)-5,6,7,8-tetrahydro-pyrido[4,3-d]pyrimidin-4-yloxy]-pyrrolidin-1-yl}-(4-methyl-piperazin-1-yl)-methanone] | 21 | –
COC(=O)N1CC[C@H](Oc2ncnc3c2CN(c2cnc(OC)c(C#N)c2)CC3)C1 [Example 90, (S)-3-[6-(5-cyano-6-methoxy-pyridin-3-yl)-5,6,7,8-tetrahydro-pyrido[4,3-d]pyrimidin-4-yloxy]-pyrrolidine-1-carboxylic acid methyl ester] | 38 | –
COc1ncc(N2CCc3ncnc(O[C@H]4CCN(C(=O)c5cnco5)C4)c3C2)cc1C(F)(F)F [Example 94, {(S)-3-[6-(6-Methoxy-5-trifluoromethyl-pyridin-3-yl)-5,6,7,8-tetrahydro-pyrido[4,3-d]pyrimidin-4-yloxy]-pyrrolidin-1-yl}-oxazol-5-yl-methanone] | – | 1710

Source: US8653092B2, “Tetrahydro-pyrido-pyrimidine derivatives” (Novartis AG, priority 2010, dated 2014)
